Series [1] is described as follows: Antiproliferative activity against human SKNO-1 cells assessed as cell growth inhibition measured for 4 days by celltiter-glo assay. The settings on record: SKNO-1, 96 h. Background: In ATP-based viability assays light output follows the ATP content of the culture.
Series [2] is described as follows: In vivo induction of degradation of STAT5 in human MV4-11 cells xenografted in SCID mouse assessed as reduction in STAT5 phosphorylation at Y694 residue at 150 mg/kg, ip measured at 24 hrs by immunoblotting analysis. The series is classed as functional. More on the design: scale not given: the % may be the effect or the level left. (In xenograft studies the graft and the host belong to different species.)

Series [3] can be described thus: Antiproliferative activity against human SKNO-1 cells assessed as maximal cell growth inhibition measured for 4 days by celltiter-glo assay relative to control. The series is classed as functional. The settings on record: time 4 day.
A short description of series [4]: Antiproliferative activity against human BDCM cells assessed as maximal cell growth inhibition measured for 4 days by celltiter-glo assay relative to control. The class given is functional. The settings on record: time 4 day.
The subject of series [5] is SKNO-1. As to the kind of experiment: Effect on STAT4 level in human SKNO-1 cells upto 5 uM measured for 18 hrs by Western blot analysis. The class given is functional, cell-based. Background: A western blot detects proteins with antibodies after separation by electrophoresis.
The target of series [6] is T1, Signal transducer and activator of transcription 5A (Homo sapiens, UniProt P42229).
T1 sequence (P42229 whole entry): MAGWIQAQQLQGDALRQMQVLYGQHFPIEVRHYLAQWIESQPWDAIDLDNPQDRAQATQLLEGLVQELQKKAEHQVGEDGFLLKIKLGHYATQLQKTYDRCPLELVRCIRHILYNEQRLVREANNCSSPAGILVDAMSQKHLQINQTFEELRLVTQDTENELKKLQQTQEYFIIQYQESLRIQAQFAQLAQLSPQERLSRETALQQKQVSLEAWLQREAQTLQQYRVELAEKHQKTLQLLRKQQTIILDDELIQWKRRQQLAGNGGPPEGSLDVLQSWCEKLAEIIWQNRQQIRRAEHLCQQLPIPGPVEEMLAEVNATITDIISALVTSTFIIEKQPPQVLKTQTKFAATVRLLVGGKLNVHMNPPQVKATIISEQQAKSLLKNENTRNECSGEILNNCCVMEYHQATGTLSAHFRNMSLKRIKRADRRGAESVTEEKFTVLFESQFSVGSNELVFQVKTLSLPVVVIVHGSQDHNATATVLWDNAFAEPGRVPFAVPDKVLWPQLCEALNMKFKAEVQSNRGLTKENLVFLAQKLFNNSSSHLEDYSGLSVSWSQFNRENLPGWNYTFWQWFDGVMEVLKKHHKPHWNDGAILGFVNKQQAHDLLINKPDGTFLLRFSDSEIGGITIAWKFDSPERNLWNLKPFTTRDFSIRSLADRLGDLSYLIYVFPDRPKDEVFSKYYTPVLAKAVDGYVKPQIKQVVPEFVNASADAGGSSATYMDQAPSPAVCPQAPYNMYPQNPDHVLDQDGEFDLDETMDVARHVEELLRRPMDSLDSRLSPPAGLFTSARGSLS
As to the kind of experiment: Induction of STAT5 degradation in human MV4-11 cells assessed as reduction in phosphorylated STAT5 level measured for 6 hrs by immunoblotting analysis. The class given is cell-based.

The target in series [7] is T1, Signal transducer and activator of transcription 5A. As to the kind of experiment: Induction of STAT5 degradation in human SKNO-1 cells assessed as reduction in phosphorylated STAT5 level measured for 18 hrs by immunoblotting analysis. The series is classed as cell-based.
The target of series [8] is T2, STAT5A/STAT5B (Homo sapiens, UniProt P42229+P51692).
T2 sequence (P42229 whole entry): T1 sequence (P42229 whole entry)
T2 sequence (P51692 whole entry): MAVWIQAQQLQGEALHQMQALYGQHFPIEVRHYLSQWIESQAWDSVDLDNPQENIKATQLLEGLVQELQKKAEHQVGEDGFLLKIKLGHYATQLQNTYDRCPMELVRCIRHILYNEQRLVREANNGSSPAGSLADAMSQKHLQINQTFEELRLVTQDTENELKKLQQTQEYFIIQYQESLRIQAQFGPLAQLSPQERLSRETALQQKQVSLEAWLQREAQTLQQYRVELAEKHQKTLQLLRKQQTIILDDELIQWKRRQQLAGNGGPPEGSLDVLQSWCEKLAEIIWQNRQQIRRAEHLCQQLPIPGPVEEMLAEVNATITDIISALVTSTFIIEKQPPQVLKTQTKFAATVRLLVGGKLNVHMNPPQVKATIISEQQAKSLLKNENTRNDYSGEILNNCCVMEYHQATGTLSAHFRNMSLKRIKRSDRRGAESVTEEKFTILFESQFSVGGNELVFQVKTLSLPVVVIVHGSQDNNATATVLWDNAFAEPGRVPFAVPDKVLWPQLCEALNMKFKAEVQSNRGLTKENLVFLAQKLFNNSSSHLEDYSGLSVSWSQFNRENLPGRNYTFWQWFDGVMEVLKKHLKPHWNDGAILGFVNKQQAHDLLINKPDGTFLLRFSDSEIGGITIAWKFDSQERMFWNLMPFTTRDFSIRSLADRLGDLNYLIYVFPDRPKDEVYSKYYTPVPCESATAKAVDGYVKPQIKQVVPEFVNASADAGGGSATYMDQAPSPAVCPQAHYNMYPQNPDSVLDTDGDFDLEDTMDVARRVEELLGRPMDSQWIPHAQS
Description: Induction of STAT5A/5B degradation in human Kasumi-3 cells measured for 18 hrs by immunoblotting analysis. The class given is cell-based.

Series [9] can be described thus: Toxicity in SCID mouse assessed as effect on sign of illness at 50 to 200 mg/kg, ip administered 5 days a week for 3 weeks. The class given is organism-based. The settings on record: in vivo, 120 h, dose 50-200 mg/kg, time 5 day.
Series [10] in a line: Half life in SCID mouse at 150 mg/kg, ip. The series is classed as ADME, organism-based. The settings on record: in vivo.
In another series the test system is MV4-11. As to the kind of experiment: Effect on STAT1 level in human MV4-11 cells upto 5 uM measured for 18 hrs by Western blot analysis. The class given is functional, cell-based.
Series [11] can be described thus: Antiproliferative activity against human OCI-M2 cells assessed as maximal cell growth inhibition measured for 4 days by celltiter-glo assay relative to control. The class given is functional. The note with it: time 4 day.
Series [12] has as its target T2, STAT5A/STAT5B. Description: Induction of STAT5A/5B degradation in human SKNO-1 cells measured for 18 hrs by immunoblotting analysis. The class given is cell-based.
Series [13] has as its system HL-60. Description: Antiproliferative activity against human HL-60 cells assessed as cell growth inhibition measured for 4 days by celltiter-glo assay. The note with it: HL-60, 96 h.
The nature of series [14]: In vivo induction of degradation of STAT5 in human MV4-11 cells xenografted in SCID mouse assessed as reduction in STAT5 phosphorylation at Y694 residue at 150 mg/kg, ip measured at 1 to 24 hrs by immunoblotting analysis. The class given is functional. Details: scale not given: the % may be the effect or the level left. The note with it: time 1-24 hrs.
Series [15] has as its system SKNO-1. As to the kind of experiment: Effect on STAT2 level in human SKNO-1 cells upto 5 uM measured for 18 hrs by Western blot analysis. The class given is functional, cell-based.
The next series concerns Mus musculus. As to the kind of experiment: In vivo induction of degradation of STAT5 in human MV4-11 cells xenografted in SCID mouse assessed as reduction in STAT5 phosphorylation at Y694 residue at 150 mg/kg, ip measured at 1 hrs by immunoblotting analysis. The series is classed as functional, organism-based.
Series [16] relates to HL-60. Description: Antiproliferative activity against human HL-60 cells assessed as maximal cell growth inhibition measured for 4 days by celltiter-glo assay relative to control. The series is classed as functional. The note with it: time 4 day.
Series [17] has as its target T2, STAT5A/STAT5B. As to the kind of experiment: Induction of STAT5A/5B degradation in human MV4-11 cells measured for 6 hrs by immunoblotting analysis. The class given is cell-based.
Series [18] can be described thus: Antiproliferative activity against human Kasumi-3 cells assessed as maximal cell growth inhibition measured for 4 days by celltiter-glo assay relative to control. The class given is functional. The settings on record: time 4 day.
For series [19], the target named is T2, STAT5A/STAT5B. As to the kind of experiment: Induction of STAT5A/5B degradation in human BDCM cells measured for 18 hrs by immunoblotting analysis. The class given is cell-based.

Calls of active or inactive are those of the source. The calls are words filed in the database; no cut-off is given here.

Consider `CN(CCCC#Cc1cccc2c1CN(C1CCC(=O)NC1=O)C2=O)C(=O)CCN(C(=O)[C@@H]1CCCN1C(=O)[C@@H](NC(=O)c1cc2cc(C(F)(F)P(=O)(O)O)ccc2s1)C(C)(C)C)c1ccc(-c2nccs2)cc1` (stereo partly specified), for which the IC50 (as a rule, the concentration needed to halve the response being measured) in [1] is 360 nM; with HL-60 [13] it was above 15000 nM. Also, the Activity is above 70% in series [2], “Non-Toxic” in series [9] and above 95% in series [14]. Besides, the Imax in series [3] is reported as 64%; in [4], below 5%; in series [11], below 5%; in the series with HL-60 [16], below 5%; in [18], 72%. The result in the series with SKNO-1 [5], in the series with MV4-11 and with SKNO-1 [15] was inactive. Besides, the DC50 – broadly, the concentration at which degradation of the target reaches its halfway point – in series [6] was 60 nM; in series [7], 70 nM; on STAT5A/STAT5B [8], 180 nM; at STAT5A/STAT5B [12], 80 nM; at STAT5A/STAT5B [17], 50 nM; on STAT5A/STAT5B [19] it was 410 nM. In addition, in series [10], the half-life (in general, the time in which the quantity being followed falls by half) is 1.9 h. The result in the series with Mus musculus was Active.

The values are drawn from ChEMBL document CHEMBL5380794, “Discovery of a Potent and Selective STAT5 PROTAC Degrader with Strong Antitumor Activity In Vivo in Acute Myeloid Leukemia” (J Med Chem, 2023).
